Measured values as given in patent US20040147531A1, “Amidine derivatives for treating amyloidosis” (priority 2001, published 2004).

Columns and labels:
Design in all cases: key: “+” = active; “−” = inactive; “pr” = promoting
[1] = target: T1, Aβ40 (Homo sapiens, UniProt P05067); assay: mass spectroscopy (MS) assay, binding to Aβ; conditions: 200 μM test compound, 20 μM solubilized Aβ40, pH 7.4; ability to bind to Aβ
T1 construct: 200 μM of a test compound and 20 μM of solubilized Aβ40
Description: Test compounds were purchased from commercial sources or synthesized and screened by thioflavin T fluorescent assay (“ThT assay”). Alternatively, one could screen test compounds by circular dichroism (“CD”), electron microscopy (“EM”), or mass spectroscopy (“MS”) assays.
And in the mass spectroscopy (“MS”) assay, samples were prepared as aqueous solutions containing 20% ethanol, 200 μM of a test compound and 20 μM of solubilized Aβ40. The pH value of each sample was adjusted to 7.4 (±0.2) by addition of 0.1% aqueous sodium hydroxide. The solutions were then analyzed by electrospray ionization mass spectroscopy using a Waters ZQ 4000 mass spectrometer. Samples were introduced by direct infusion at a flow-rate of 25 μL/min within 2 hr. after sample preparation. The source temperature was kept at 70° C. and the cone voltage was 20 V for all the analysis. Data were processed using Masslynx 3.5 software.

[2] = target: T2, Aβ (Homo sapiens, UniProt P05067); assay: electron microscopy (EM) assay, inhibition of fibrillogenesis; assay type: biochemical; conditions: soluble Aβ
T2 construct: Aβ peptide: Aβ (1-40) 95% purity (American Peptide Company, Inc, Sunnyvale, Calif. USA)
T2 sequence (P05067 672-711 limits assumed): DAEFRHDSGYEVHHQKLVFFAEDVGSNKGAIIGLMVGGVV
Source text: (§1) Test compounds were purchased from commercial sources or synthesized and screened by thioflavin T fluorescent assay (“ThT assay”). Alternatively, one could screen test compounds by circular dichroism (“CD”), electron microscopy (“EM”), or mass spectroscopy (“MS”) assays. The MS assay gives data on the ability of compounds to bind to an amyloid protein, whereas the ThT, EM, and CD assays give data on inhibition of fibrillogenesis.
Similarly, in the electron microscopy (“EM”) assay, each sample was sonicated for 1 min to disrupt large clumps before testing. The sample (5-μL aliquot) was placed on freshly cleaved mica and allowed to air dry. The mica was placed in a Balzers High-vacuum, Freeze-Etch Unit (model 301), shadowed with platinum (30° angle), and coated with a carbon film. The replica was removed from the mica by flotation and transferred onto a 300-mesh copper grid. Samples were examined using a Joel 2000 FX transmission electron microscope. […]

[3] = target: T2, Aβ; assay: circular dichroism (CD) assay, inhibition of fibrillogenesis; assay type: biochemical; conditions: soluble Aβ, 37° C., 190-240 nm
Source text: as §1
In the circular dichroism (“CD”) assay, samples were transferred to 0.1-cm path-length quartz cuvettes and CD scans were taken using a Jasco J-715 spectropolarimeter. Readings were taken at 37° C., between 190 and 240 nm, with a resolution of 0.1 nm and a bandwidth of 1 nm. […]

T1 sequence (P05067 672-711 limits assumed): as above

SMILES	MS Assay [1]	EM [2]	CD [3]
Cl.N=C(N)c1ccc(OCCCOc2ccc(CCC(=O)O)cc2)cc1 [Compound 40]	−		
Cl.N=C(N)c1ccc(OCCCCCCCC(=O)O)cc1 [Compound 42]	+		
N=C(N)c1ccc(OCCCCCCCCCBr)cc1 [Compound 43]	+		
Br.N=C(N)c1ccc(OCCCCCCCCBr)cc1 [Compound 44]	+		
Cl.N=C(N)c1ccc(OCCCCCCCCC(=O)O)cc1 [Compound 45]	+		
N=C(N)c1ccc(-c2cc3ccc(C(=N)N)cc3[nH]2)cc1 [Compound 47]	−		
Cl.Cl.N=C(N)Cc1ccc(OCCCCCOc2ccc(CC(=N)N)cc2)cc1 [Compound 48]	+		
Cl.Cl.N=C(N)Nc1ccc(OCCCCCOc2ccc(NC(=N)N)cc2)cc1 [Compound 49]	+		
Cc1c(-c2ccc(C(=N)N)cc2)oc(-c2ccc(C(=N)N)cc2)c1C [Compound 57]	+		
COc1ccc2c(c1)[nH]c1cc(C(=N)N)ccc12 [Compound 59]	+		
CC(C)NC(=N)c1cccc(COc2cccc3c(OCc4cccc(C(=N)NC(C)C)c4)cccc23)c1 [Compound 60]	+	−	+
CC(C)NC(=N)c1ccc(COc2cccc3c(OCc4ccc(C(=N)NC(C)C)cc4)cccc23)cc1 [Compound 61]	+	+	+
CC(C)NC(=N)c1ccc(OCc2ccc(COc3ccc(C(=N)NC(C)C)cc3)c3ccccc23)cc1 [Compound 62]	+	+	+
c1cc2c(cc1C1=NCCN1)c1cc(C3=NCCN3)ccc1n2CCCCCn1c2ccc(C3=NCCN3)cc2c2cc(C3=NCCN3)ccc21 [Compound 63]	+		
N=C(N)c1ccc(COc2ccc([N+](=O)[O-])cc2)cc1 [Compound 67]	−		
N=C(N)c1cccc(OCc2ccccc2)c1 [Compound 68]	−		
CC(C)c1ccc(OCc2ccc(C(=N)N)cc2)cc1 [Compound 70]	+	+	+
Cc1cc(-c2nc3cc(C(=N)N)ccc3[nH]2)c(C)cc1-c1nc2cc(C(=N)N)ccc2[nH]1 [Compound 73]	+		
N=C(N)c1ccc(OCCCCCCCCCCCCOc2ccc(C(=N)N)cc2Br)c(Br)c1 [Compound 76]	+	+	−
N=C(N)c1cccc(COc2cccc3c(OCc4cccc(C(=N)N)c4)cccc23)c1 [Compound 77]	+		

SMILES	MS Assay [1]	EM [2]	CD [3]
N=C(N)c1cccc(OCCC(O)COc2cccc(C(=N)N)c2)c1 (centres unmarked) [Compound 79]	+		
N=C(N)c1ccc2[nH]c(Cc3nc4cc([N+](=O)[O-])ccc4[nH]3)nc2c1 [Compound 80]	+		
N=C(N)c1ccc2[nH]c(-c3ccccc3)nc2c1 [Compound 81]	+		
N=C(N)c1ccc(-c2cc(-c3cccc(C(=N)N)c3)on2)cc1 [Compound 82]	−		
N=C(N)c1ccc(-c2cc(-c3cccc(C(=N)N)c3)no2)cc1 [Compound 83]	+	+	−
COc1cc(C2=NCCN2)ccc1OCCCOc1ccc(C2=NCCN2)cc1OC [Compound 85]	−		
COc1cc(C(=N)N)ccc1OC/C=C\COc1ccc(C(=N)N)cc1OC [Compound 86]	+		
c1cc2[nH]c(-c3ccc4[nH]c(CCc5nc6cc(-c7nc8cc(C9=NCCN9)ccc8[nH]7)ccc6[nH]5)nc4c3)nc2cc1C1=NCCN1 [Compound 87]	+		
CCCCNC(=N)c1ccc2nc(-c3ccc(CCc4ccc(-c5nc6ccc(C(=N)NCCCC)cc6[nH]5)cc4)cc3)[nH]c2c1 [Compound 89]	+		
CC(C)NC(=N)c1ccc(COc2ccc3ccc(OCc4ccc(C(=N)NC(C)C)cc4)cc3c2)cc1 [Compound 90]	+		
CC(C)NC(=N)c1cccc(COc2ccc3ccc(OCc4cccc(C(=N)NC(C)C)c4)cc3c2)c1 [Compound 91]	+		
N=C(N)c1ccc(OCCCCCOc2ccc(-c3nc4cc(C(=N)N)ccc4[nH]3)cc2)cc1 [Compound 94]	+		
COC(=O)C(CCOc1ccc(C(=N)NO)cc1)CCOc1ccc(C(=N)NO)cc1 (centres unmarked) [Compound 95]	+		
CCC(C)NC(=N)c1ccc(OCCCCCOc2cccc(C3=NC4C=C(C(=N)NC(C)C)C=CC4N3)c2)cc1.Cl.Cl.Cl (centres unmarked) [Compound 96]	+		
Cn1c(CCCCc2nc3cc(C(=N)N)ccc3n2C)nc2cc(C(=N)N)ccc21 [Compound 97]	+		
N=C(N)c1ccc(NC(=O)CC(=O)Nc2ccc(C(N)N)cc2)cc1 [Compound 98]	+		
N=C(N)c1ccc(-c2ccc(-c3ccc(C(=N)N)cc3)o2)cc1 [Compound 99]	+		
CC(C)NC(=N)c1ccc(-c2ccc(-c3ccc(C(=N)NC(C)C)cc3)o2)cc1 [Compound 100]	+		
Cn1c(-c2nc3ccc(C(=N)N)cc3[nH]2)ccc1-c1nc2ccc(C(=N)N)cc2[nH]1 [Compound 103]	+	+	−
Cc1nc(-c2ccc(C(=N)N)cc2)cc(-c2ccc(C(=N)N)cc2)n1 [Compound 106]	+		

SMILES	MS Assay [1]	EM [2]	CD [3]
Cn1c(-c2ccc(C(=N)N)cc2)ccc1-c1ccc(C(=N)N)cc1 [Compound 108]	+		
N=C(N)c1ccc2nc(-c3ccc4cc(-c5nc6ccc(C(=N)N)cc6[nH]5)ccc4c3)[nH]c2c1 [Compound 110]	+		
N=C(N)c1ccc2nc(-c3ccc(-c4ccc([N+](=O)[O-])cc4)o3)[nH]c2c1 [Compound 111]	+		
N=C(N)c1ccc2nc(-c3ccc(-c4ccc(-c5nc6ccc(C(=N)N)cc6[nH]5)cc4)cc3)[nH]c2c1 [Compound 113]	+		
N=C(N)c1ccc2nc(-c3ccc(Cc4ccc(-c5nc6ccc(C(=N)N)cc6[nH]5)cc4)cc3)[nH]c2c1 [Compound 114]	+	+	−
N=C(N)c1ccc2nc(-c3ccc(C4CC4c4ccc(-c5nc6ccc(C(=N)N)cc6[nH]5)cc4)cc3)[nH]c2c1 (centres unmarked) [Compound 115]	+	+	−
N=C(N)c1ccc2nc(-c3ccc(CCc4ccc(-c5nc6ccc(C(=N)N)cc6[nH]5)s4)cc3)[nH]c2c1 [Compound 116]	+	+	−
COc1ccc(-c2ccc(-c3ccc(C(=N)N)cc3)o2)cc1 [Compound 117]	+	+	−
Cc1cc(C(=N)N)ccc1-c1ccc(-c2ccc(C(=N)N)cc2C)o1 [Compound 118]	−		
N=C(N)c1ccc2[nH]c(-c3ccc4c(=O)cc(-c5ccccc5)oc4c3)nc2c1 [Compound 119]	+		
N=C(N)c1ccc(-c2coc(-c3ccc(C(=N)N)cc3)c2)cc1 [Compound 120]	+	+	−
COc1cc(NC(=N)N)ccc1-c1ccc(-c2ccc(NC(=N)N)cc2OC)o1 [Compound 121]	+	+	−
N=C(N)c1ccc(-c2ccc(-c3nc4ccccc4[nH]3)o2)cc1 [Compound 122]	+	+	+
COc1ccc(-c2ccc(-c3ccc(NC(=N)N)cc3)o2)cc1 [Compound 123]	+	+	−
CCc1ccc(CCc2ccc(-c3nc4ccc(C(=N)N)cc4[nH]3)cc2)cc1 [Compound 125]	+	+	−
N=C(N)c1ccc2nc(-c3ccc(CCc4ccc(F)cc4)cc3)[nH]c2c1 [Compound 126]	+		
N=C(N)c1ccc(-c2ccc(-c3nc4cc(C(=N)N)ccc4o3)o2)cc1 [Compound 129]	+		
Cc1cc(C(=N)N)ccc1-c1ccc(-c2nc3ccc(C(=N)N)cc3[nH]2)o1 [Compound 131]	+		
CC(=N)Nc1ccc(-c2ccc(-c3ccc(NC(C)=N)cc3C)o2)c(C)c1 [Compound 135]	+		
N=C(Nc1ccc(-c2ccc(-c3ccc(NC(=N)c4ccccn4)cc3O)o2)c(O)c1)c1ccccn1 [Compound 136]	+		
